From ChEMBL document CHEMBL1201862, “PubChem BioAssay data set” (2004)
Active and inactive are the calls of the source.

Assays:
[1] = molecular target: T1, Sentrin-specific protease 6 (Homo sapiens, UniProt Q9GZR1); assay type: functional;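 note: Luminescence-based dose-response confirmatory assay of SENP6 inhibition, following up an ultra-high-throughput screen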
T1 sequence (Q9GZR1 whole entry): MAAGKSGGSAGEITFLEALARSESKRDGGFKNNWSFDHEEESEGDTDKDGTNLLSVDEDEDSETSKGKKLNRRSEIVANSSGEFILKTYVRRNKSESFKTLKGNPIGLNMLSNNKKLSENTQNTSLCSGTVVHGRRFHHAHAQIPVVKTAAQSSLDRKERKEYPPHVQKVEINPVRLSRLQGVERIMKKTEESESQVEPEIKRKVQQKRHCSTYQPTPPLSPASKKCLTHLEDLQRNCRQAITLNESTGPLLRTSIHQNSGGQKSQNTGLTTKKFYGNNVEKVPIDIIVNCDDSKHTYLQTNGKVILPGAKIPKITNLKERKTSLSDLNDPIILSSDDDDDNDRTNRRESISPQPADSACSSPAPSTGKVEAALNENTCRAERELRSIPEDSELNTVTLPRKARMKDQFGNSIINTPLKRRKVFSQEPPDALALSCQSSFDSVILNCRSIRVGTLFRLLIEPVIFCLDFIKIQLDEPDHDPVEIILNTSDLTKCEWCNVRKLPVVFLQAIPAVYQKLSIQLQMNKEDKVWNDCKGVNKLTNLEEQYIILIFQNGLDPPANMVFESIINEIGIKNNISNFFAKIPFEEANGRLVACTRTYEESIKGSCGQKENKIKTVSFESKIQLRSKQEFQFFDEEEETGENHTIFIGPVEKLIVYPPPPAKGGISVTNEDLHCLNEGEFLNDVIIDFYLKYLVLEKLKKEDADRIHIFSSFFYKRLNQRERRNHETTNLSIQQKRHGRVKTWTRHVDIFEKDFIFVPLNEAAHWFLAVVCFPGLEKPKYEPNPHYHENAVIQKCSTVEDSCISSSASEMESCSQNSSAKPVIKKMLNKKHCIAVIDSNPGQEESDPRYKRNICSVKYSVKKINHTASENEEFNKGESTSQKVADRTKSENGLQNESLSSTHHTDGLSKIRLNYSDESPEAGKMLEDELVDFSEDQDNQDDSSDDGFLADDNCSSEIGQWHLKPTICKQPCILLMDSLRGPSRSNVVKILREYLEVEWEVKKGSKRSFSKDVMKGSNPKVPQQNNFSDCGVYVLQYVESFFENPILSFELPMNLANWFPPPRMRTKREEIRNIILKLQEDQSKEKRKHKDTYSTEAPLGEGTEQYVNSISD

[2] = molecular target: T2, Sentrin-specific protease 8 (Homo sapiens, UniProt Q96LD8); assay type: functional;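 note: luminescence read-out of SENP8 inhibition, dose-response confirmation following an ultra-high-throughput screen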
T2 sequence (Q96LD8 whole entry): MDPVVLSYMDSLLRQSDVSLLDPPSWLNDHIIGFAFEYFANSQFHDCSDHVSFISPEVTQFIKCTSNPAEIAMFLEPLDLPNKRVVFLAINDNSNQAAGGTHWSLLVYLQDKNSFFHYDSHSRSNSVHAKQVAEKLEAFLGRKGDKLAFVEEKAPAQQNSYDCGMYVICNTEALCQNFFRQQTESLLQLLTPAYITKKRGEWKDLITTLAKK

[3] = molecular target: T3, Replicative DNA helicase DnaB (Mycobacterium tuberculosis, UniProt P9WMR3); test: DnaB intein splicing inhibitors, dose response, biochemical, cell-free fluorescence (AID 449749); assay type: functional
T3 sequence (P9WMR3 whole entry): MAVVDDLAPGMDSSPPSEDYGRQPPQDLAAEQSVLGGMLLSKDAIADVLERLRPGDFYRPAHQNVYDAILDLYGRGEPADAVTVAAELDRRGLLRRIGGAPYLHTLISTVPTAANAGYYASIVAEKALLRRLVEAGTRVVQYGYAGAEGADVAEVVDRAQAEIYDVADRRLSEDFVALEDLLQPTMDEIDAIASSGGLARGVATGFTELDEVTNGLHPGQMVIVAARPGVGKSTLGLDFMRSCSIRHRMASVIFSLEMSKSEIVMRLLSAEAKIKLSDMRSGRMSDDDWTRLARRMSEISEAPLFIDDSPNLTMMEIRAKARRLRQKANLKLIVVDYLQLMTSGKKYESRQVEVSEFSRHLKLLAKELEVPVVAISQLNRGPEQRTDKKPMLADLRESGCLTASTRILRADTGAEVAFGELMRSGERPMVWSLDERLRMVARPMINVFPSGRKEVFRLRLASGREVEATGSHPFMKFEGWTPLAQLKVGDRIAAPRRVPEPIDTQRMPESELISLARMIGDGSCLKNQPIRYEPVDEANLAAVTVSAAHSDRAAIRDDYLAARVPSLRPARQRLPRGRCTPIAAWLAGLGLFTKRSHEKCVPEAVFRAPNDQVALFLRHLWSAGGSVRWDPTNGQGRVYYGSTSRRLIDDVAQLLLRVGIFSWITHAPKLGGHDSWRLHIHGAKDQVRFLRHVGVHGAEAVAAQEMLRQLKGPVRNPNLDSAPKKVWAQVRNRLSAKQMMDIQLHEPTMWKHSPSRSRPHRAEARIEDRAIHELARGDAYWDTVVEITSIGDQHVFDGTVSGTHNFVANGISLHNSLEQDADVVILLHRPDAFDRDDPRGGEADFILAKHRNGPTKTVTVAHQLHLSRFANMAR

[4] = tested on: INS1; test: beta cell apoptosis inhibitors, cytokine rescue, dose response, luminescence, retest (AID 449756); assay type: functional, cell-based; settings: Rattus norvegicus;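 note: cell death triggered by IL-1 beta plus TNF-alpha plus IFN-gamma mixture; protective hits raise ATP signal compared with cytokine alone wells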

CCCCn1c(NC(=O)c2ccco2)c(C(=O)OCC)c2nc3ccccc3nc21
IC50 [1]: 3.25 µM (active) | IC50 [2]: 4.36 µM (active)

Cc1ccccc1NC1=C/C(=N\S(=O)(=O)c2ccc(C(=O)O)cc2)c2ccccc2C1=O
AC50 [3]: 105 µM (active) | AC50 [4]: 4.38 µM (active)

COc1ccc(-c2cc(-c3ccc(C)cc3)[nH]n2)c(O)c1
IC50 [1]: 19.7 µM (active) | IC50 [2]: 34.6 µM (active)

Cc1ccc(NC2=C/C(=N/S(=O)(=O)c3cccs3)c3ccccc3C2=O)cc1
IC50 [1]: 0.186 µM (active) | IC50 [2]: 0.244 µM (active) | AC50 [3]: 0.301 µM (active) | AC50 [4]: 0.72 µM (active)

O=C(Nc1ccc(C#Cc2ccccc2)cc1)C1CC1
IC50 [1]: > 100 µM (inactive) | IC50 [2]: > 100 µM (inactive)

COC(=O)C[C@]1(C(=O)OC)CN(C#N)N(c2ccc(Cl)cc2)C12c1ccccc1-c1ccccc12
AC50 [3]: 1.83 µM (active) | AC50 [4]: 2.77 µM (active)
